Results reported in paper PMC11945486, “TAS1R2/TAS1R3 Single-Nucleotide Polymorphisms Affect Sweet Taste Receptor Activation by Sweeteners: The SWEET Project” (Nutrients, 2025).
Where two headings read alike, the source gives them in different places. No end group written: not given here.

T1: human TAS1R2-WT/TAS1R3-C757R (Homo sapiens, UniProt Q7RTX0+Q8TE23, C757R)
T1 construct: expressed in transfected cells; host or cells: HEK293T stably expressing Gα16gust44
T1 sequence (Q8TE23 20-839): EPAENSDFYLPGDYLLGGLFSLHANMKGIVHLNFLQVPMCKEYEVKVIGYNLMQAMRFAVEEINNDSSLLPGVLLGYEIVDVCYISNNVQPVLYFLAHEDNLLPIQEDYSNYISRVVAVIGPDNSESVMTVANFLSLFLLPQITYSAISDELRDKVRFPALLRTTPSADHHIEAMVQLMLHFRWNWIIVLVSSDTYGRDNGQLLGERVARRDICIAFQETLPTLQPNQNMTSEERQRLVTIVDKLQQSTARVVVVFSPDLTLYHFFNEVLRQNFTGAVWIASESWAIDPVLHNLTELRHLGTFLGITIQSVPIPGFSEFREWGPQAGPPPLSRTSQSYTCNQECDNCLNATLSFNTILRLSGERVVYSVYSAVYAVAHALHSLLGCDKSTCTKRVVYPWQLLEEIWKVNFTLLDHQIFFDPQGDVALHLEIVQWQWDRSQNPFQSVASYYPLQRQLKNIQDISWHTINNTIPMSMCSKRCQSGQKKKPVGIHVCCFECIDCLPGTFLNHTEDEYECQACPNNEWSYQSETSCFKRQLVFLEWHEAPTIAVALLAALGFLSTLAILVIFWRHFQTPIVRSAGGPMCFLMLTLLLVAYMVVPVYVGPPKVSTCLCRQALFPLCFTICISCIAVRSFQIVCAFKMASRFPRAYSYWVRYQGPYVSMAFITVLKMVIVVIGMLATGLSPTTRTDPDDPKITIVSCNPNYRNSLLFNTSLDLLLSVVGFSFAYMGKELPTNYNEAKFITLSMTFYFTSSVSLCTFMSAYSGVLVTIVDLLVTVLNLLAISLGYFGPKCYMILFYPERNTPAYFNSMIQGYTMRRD
T1 sequence (Q7RTX0 21-852 C757R): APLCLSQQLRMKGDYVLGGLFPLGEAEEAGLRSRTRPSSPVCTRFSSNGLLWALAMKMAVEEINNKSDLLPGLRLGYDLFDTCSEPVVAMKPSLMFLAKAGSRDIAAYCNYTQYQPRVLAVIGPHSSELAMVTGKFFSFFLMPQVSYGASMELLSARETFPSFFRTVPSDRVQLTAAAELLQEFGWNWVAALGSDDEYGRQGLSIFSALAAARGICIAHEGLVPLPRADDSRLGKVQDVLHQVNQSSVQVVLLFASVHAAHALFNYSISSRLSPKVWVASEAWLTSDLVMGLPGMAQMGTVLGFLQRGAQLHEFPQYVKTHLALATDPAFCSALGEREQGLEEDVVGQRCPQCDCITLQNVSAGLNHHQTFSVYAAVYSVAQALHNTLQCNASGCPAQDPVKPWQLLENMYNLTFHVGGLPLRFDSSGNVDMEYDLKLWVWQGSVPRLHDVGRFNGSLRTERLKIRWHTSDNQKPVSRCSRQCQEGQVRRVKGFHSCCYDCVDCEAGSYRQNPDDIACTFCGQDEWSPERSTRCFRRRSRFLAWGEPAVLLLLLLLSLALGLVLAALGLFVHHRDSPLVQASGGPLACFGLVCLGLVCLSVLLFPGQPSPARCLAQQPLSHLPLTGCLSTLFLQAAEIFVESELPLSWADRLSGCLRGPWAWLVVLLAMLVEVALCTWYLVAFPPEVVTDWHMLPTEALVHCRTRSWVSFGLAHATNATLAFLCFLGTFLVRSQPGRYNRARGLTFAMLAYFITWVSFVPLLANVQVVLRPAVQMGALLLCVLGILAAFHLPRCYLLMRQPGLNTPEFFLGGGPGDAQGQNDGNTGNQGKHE

B1: thaumatin (protein)
chain: ATFEIVNRCSYTVWAAASKGDAALDAGGRQLNSGESWTINVEPGTKGGKIWARTDCYFDDSGSGICKTGDCGGLLRCKRFGRPPTTLAEFSLNQYGKDYIDISNIKGFNVPMDFSPTTRGCRGVRCAADIVGQCPAKLKAPGGGCNDACTVFQTSEYCCTTGKCGPTEYSRFFKRLCPDAFSYVLDKPTTVTCPGSSNYRVTFCPTA
modifications: Eight disulfides
notes: sweet-tasting plant protein, E957

Target: T1, human TAS1R2-WT/TAS1R3-C757R
Test: Calcium mobilisation assay, TAS1R2-WT with TAS1R3 variant C757R
Assay type: cell-based
Conditions: for Max ΔF/F0: maximal signal amplitude
Source text: The coding sequences for TAS1R2 and TAS1R3 were commercially synthesised, and the human codon was optimised for expression in human cells. The coding sequences of human TAS1R2 and TAS1R3 were subcloned and inserted into the mammalian expression vectors pcDNA6/myc-HisA and pcDNA4/myc-HisA (Invitrogen; Thermo Fisher Scientific; Illkirch, France) between the EcoRI and NotI restriction sites, generating the plasmids pcDNA6-TAS1R2 and pcDNA4-TAS1R3, respectively. To increase protein expression in mammalian cells, an upstream start codon was used, which was a sequence called MAX, corresponding to the QBI SP163 element also described in pcDNA4-HisMax (Invitrogen; Thermo Fisher Scientific; Illkirch, France). To measure the expression level of the receptor by immunohistochemistry, we used the FLAG sequence ([…]) in the C-terminal position, which encodes the FLAG tag epitope. SNP variants of TAS1R2 and TAS1R3 were constructed based on […], respectively, using site-directed mutagenesis (Genewiz; Leipzig, Germany).
The HEK293T cells were kindly provided by Jay P. Slack (Givaudan Flavors Corporation; Cincinnati, OH, USA). HEK293T cells stably transfected with Gα16gust44 [43, 67] were seeded in poly-D-lysine-coated clear-bottom black 96-well plates (0.35 × 10^5 cells/well) in high-glucose DMEM supplemented with 2 mM GlutaMAX, 10% dialysed foetal bovine serum with penicillin/streptomycin and G418 (400 μg/mL) at 37 °C and 6.3% CO2 in a humidified atmosphere as previously reported. […] As a negative control, HEK293T cells were mock-transfected with the empty expression vector. After a further 24 h of incubation, the HEK293T cells were washed with C1 buffer (130 mM NaCl, 5 mM KCl, 10 mM HEPES pH 7.4 and 2 mM CaCl2). The 96-well plates containing the cells were then stimulated with sweet-tasting compounds. […] Different concentration ranges were tested depending on the sweet compound injected. The Ca^2+ changes were expressed as fractional changes in fluorescent light intensity: ΔF/F = (F − F0)/F0, where F was the fluorescent light intensity at each point, and F0 was the value of emitted fluorescent light prior to stimulus application. To calculate dose–response relationships, the changes in fluorescence upon stimulus application were averaged, mock-subtracted and baseline-corrected. The dose–response data obtained were adjusted using a 4-parameter logistic equation. The half-maximal effective concentrations (EC50 values) and maximal signal amplitudes were calculated using SigmaPlot software (version 15.0) (Systat Software; San Jose, CA, USA).
For in vitro calcium mobilisation assay performed on hTAS1R2-SNPs, hTAS1R3-SNPs and mTAS1R3-I60T, 6 to 7 concentrations were tested for each sweet compound, plus buffer alone. All concentration–receptor combinations were measured in duplicate, and each experiment was repeated at least 4 times (8 wells/concentration). Results were expressed for each concentration as ΔF/F mean ± SEM and represented as dose–response curves.

| Molecule | R1 = Variant EC50/WT EC50 | Max ΔF/F0 | EC50 (read-out: EC50) | EC50 (brazzein) |
| --- | --- | --- | --- | --- |
| OC[C@H]1O[C@H](O[C@]2(CCl)O[C@H](CCl)[C@@H](O)[C@@H]2O)[C@H](O)[C@@H](O)[C@H]1Cl [Sucralose] | 1.0 | 0.84 ± 0.03 | 113 ± 10 µM |  |
| O=S(=O)(O)NC1CCCCC1 [Cyclamate, cyclamate] |  |  | 1150 ± 54 µM |  |
| C=C(C)[C@@H]1CC=C(/C=N/O)CC1 [Perillartine, perillartine] | 0.6 | 1.23 ± 0.13 | 8.1 ± 2.6 µM |  |
| C=C1C[C@@]23CC[C@H]4[C@@](C)(CCC[C@@]4(C)C(=O)O[C@@H]4O[C@H](CO)[C@@H](O)[C@H](O[C@@H]5O[C@H](CO)[C@@H](O)[C@H](O)[C@H]5O)[C@H]4O[C@@H]4O[C@H](CO)[C@@H](O)[C@H](O)[C@H]4O)[C@@H]2CC[C@]1(O[C@@H]1O[C@H](CO)[C@@H](O)[C@H](O[C@@H]2O[C@H](CO)[C@@H](O)[C@H](O)[C@H]2O)[C@H]1O[C@@H]1O[C@H](CO)[C@@H](O)[C@H](O)[C@H]1O)C3 [Rebaudioside M, rebaudioside M] | 0.6 | 1.13 ± 0.04 | 24.3 ± 2.2 µM |  |
| COc1ccc(CCC(=O)c2c(O)cc(O[C@@H]3O[C@H](CO)[C@@H](O)[C@H](O)[C@H]3O[C@@H]3O[C@@H](C)[C@H](O)[C@@H](O)[C@H]3O)cc2O)cc1O [NHDC, neohesperidin dihydrochalcone] | 0.7 | 0.98 ± 0.01 | 36.5 ± 16 µM |  |
| thaumatin | 0.6 | 0.69 ± 0.05 |  |  |
| CC1=CC(=O)NS(=O)(=O)O1 [Acesulfame K, acesulfame K] | 0.8 | 0.42 ± 0.01 | 468 ± 31 µM |  |
| brazzein (QDKCKKVYENYPVSKCQLANQCNYDCKLDKHARSGECFYDEKRNLQCICDYCEY; ends and bridges not checked; cysteine pairing not given here; UniProt P56552 1-54, looked up) [sweet-tasting protein obtained by recombinant production using the yeast Pichia pastoris] | 0.7 | 0.86 ± 0.06 |  | 74.2 ± 1.9 µg/mL |
| C[C@H](CC[C@@H](O[C@@H]1O[C@H](CO[C@@H]2O[C@H](CO)[C@@H](O)[C@H](O)[C@H]2O)[C@@H](O)[C@H](O)[C@H]1O[C@@H]1O[C@H](CO)[C@@H](O)[C@H](O)[C@H]1O)C(C)(C)O)[C@H]1CC[C@@]2(C)[C@@H]3CC=C4[C@@H](CC[C@H](O[C@@H]5O[C@H](CO[C@@H]6O[C@H](CO)[C@@H](O)[C@H](O)[C@H]6O)[C@@H](O)[C@H](O)[C@H]5O)C4(C)C)[C@]3(C)[C@H](O)C[C@]12C [Mogroside V, mogroside V] | 0.7 | 1.03 ± 0.02 | 21.7 ± 1 µM |  |
| COC(=O)[C@H](Cc1ccccc1)NC(=O)[C@H](CC(=O)O)NCCC(C)(C)C [Neotame] | 0.7 | 0.75 ± 0.03 | 0.88 ± 0.12 µM |  |
| B1 |  |  | 6.7 ± 1.4 µM |  |
